Source: patent publication US20120238576A1, “Triazine Derivatives and their Therapeutical Applications” (CALIFORNIA CAPITAL EQUITY, LLC, priority 2009, published 2012)

Each compound was assayed against c-SRC (h) (Homo sapiens, UniProt P12931) (assay: Src Kinase Assay (33P-ATP filter-binding, Cdc2 peptide substrate)). Settings: compound at 10 μM; c-SRC (h) 5-10 mU, 40 minutes at room temperature.
Format: biochemical
Protocol: This example illustrated Src Kinase Assays. Briefly, in a final reaction volume of 25 μL, c-SRC (h) (5-10 mU) is incubated with 8 mM MOPS pH 7.0, 0.2 mM EDTA, 250 μM KVEKIGEGTYGVVYK (Cdc2 peptide), 10 mM MgAcetate and [g-33P-ATP] (specific activity approx. 500 cpm/pmol, concentration as required). The reaction is initiated by the addition of the MgATP mix. After incubation for 40 minutes at room temperature, the reaction is stopped by the addition of 5 μL of a 3% phosphoric acid solution. 10 μL of the reaction is then spotted onto a P30 filtermat and washed three times for 5 minutes in 75 mM phosphoric acid and once in methanol prior to drying and scintillation counting.

Sequence of c-SRC (h) (P12931 whole entry): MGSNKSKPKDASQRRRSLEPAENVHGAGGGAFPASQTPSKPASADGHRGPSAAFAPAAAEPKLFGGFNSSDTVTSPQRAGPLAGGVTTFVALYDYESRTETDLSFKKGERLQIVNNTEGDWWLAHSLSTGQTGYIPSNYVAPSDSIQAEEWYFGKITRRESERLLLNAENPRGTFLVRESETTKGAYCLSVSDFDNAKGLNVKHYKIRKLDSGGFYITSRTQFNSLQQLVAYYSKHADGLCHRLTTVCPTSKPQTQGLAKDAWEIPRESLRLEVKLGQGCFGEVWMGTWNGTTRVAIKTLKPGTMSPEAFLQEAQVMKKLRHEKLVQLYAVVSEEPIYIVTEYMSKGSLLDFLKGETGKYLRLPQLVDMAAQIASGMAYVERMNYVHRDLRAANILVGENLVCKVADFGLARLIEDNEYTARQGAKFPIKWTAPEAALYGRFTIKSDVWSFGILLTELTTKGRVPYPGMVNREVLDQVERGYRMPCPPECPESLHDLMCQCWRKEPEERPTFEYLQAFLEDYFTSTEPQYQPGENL

`O=C(Cc1cnc(Nc2ncnc(N3CCCCC3)n2)s1)Nc1cccc(F)c1` [Example 89] and `CN1CCN(c2ncnc(Nc3ncc(CC(=O)Nc4cccc(F)c4)s3)n2)CC1` [Example 88] cannot be ordered by inhibition at 10 µM: < 50% for the first, < 50% for the second.

`CCc1nc(Nc2ncc(C(=O)Nc3c(C)cccc3Cl)s2)nc(N2CCN(c3ccncc3)CC2)n1` [Example 24] and `Cc1nc(Nc2ncc(C(=O)Nc3c(C)cccc3Cl)s2)nc(N2CCN(Cc3ccncc3)CC2)n1` [Example 10] cannot be ordered by inhibition at 10 µM: > 90% for the first, > 90% for the second.

`CCc1nc(NCCN(C)C)nc(Nc2ncc(C(=O)NC3CC3)s2)n1` [Example 63] and `CCc1nc(NCCN(C)C)nc(Nc2ncc(C(=O)NC(C)C)s2)n1` [Example 67] cannot be ordered by inhibition at 10 µM: < 50% for the first, < 50% for the second.

`Cc1nc(Nc2ncc(C(=O)Nc3c(C)cccc3Cl)s2)nc(N2CCNC(=O)C2)n1` [Example 19] and `Cc1nc(Nc2ncc(C(=O)Nc3c(C)cccc3Cl)s2)nc(N2CCNCC2)n1` [Example 13] cannot be ordered by inhibition at 10 µM: > 90% for the first, > 90% for the second.

`CN(C)CCN(C)c1ncnc(Nc2cc(CC(=O)Nc3cccc(F)c3)[nH]n2)n1` [Example 110] and `CN(C)CCCOc1ncnc(Nc2cc(CC(=O)Nc3cccc(F)c3)[nH]n2)n1` [Example 105] cannot be ordered by inhibition at 10 µM: < 50% for the first, < 50% for the second.

`Cc1nc(Nc2ncc(C(=O)Nc3c(C)cccc3Cl)s2)nc(N2CCN(c3ccccc3)CC2)n1` [Example 17] and `Cc1nc(Nc2ncc(C(=O)Nc3c(C)cccc3Cl)s2)nc(N2CCN(c3cccc(C(F)(F)F)c3)CC2)n1` [Example 18] cannot be ordered by inhibition at 10 µM: > 90% for the first, > 90% for the second.

`Cc1nc(Nc2ncc(C(=O)Nc3c(C)cccc3Cl)s2)nc(N2CCN(CCO)CC2)n1` [Example 5] and `CCc1nc(Nc2ncc(C(=O)Nc3c(C)cccc3Cl)s2)nc(N2CCN(CCO)CC2)n1` [Example 23] cannot be ordered by inhibition at 10 µM: > 90% for the first, > 90% for the second.

`Cc1nc(NCCCn2ccnc2)nc(Nc2ncc(C(=O)Nc3c(C)cccc3Cl)s2)n1` [Example 20] and `CCc1nc(NCCO)nc(Nc2ncc(C(=O)Nc3c(C)cccc3Cl)s2)n1` [Example 27] cannot be ordered by inhibition at 10 µM: > 90% for the first, > 90% for the second.

`CN(C)CCCOc1ncnc(Nc2cc(CC(=O)NCc3ccc(F)cc3)[nH]n2)n1` [Example 109] and `Cc1cccc(Cl)c1NC(=O)Cc1cc(Nc2ncnc(OCCCN(C)C)n2)n[nH]1` [Example 107] cannot be ordered by inhibition at 10 µM: < 50% for the first, < 50% for the second.

`CN1CCN(c2ncnc(Nc3cc(CC(=O)NCc4ccc(F)cc4)[nH]n3)n2)CC1` [Example 108] and `CN1CCN(c2ncnc(Nc3cc(CC(=O)Nc4cccc(F)c4)[nH]n3)n2)CC1` [Example 104] cannot be ordered by inhibition at 10 µM: < 50% for the first, < 50% for the second.

Going from `Cc1cccc(Cl)c1NC(=O)c1cnc(Nc2nc(CC(C)C)nc(N3CCN(CCO)CC3)n2)s1` [Example 34] to `CCc1nc(Nc2ncc(CC(=O)Nc3c(C)cccc3Cl)s2)nc(N2CCN(CCO)CC2)n1` [Example 93], the inhibition at 10 µM falls from > 90% to < 50%.

`CCc1nc(NCCN(C)C)nc(Nc2ncc(C(=O)Nc3c(C)cc(C)cc3C)s2)n1` [Example 75] and `CCc1nc(NCCN(C)C)nc(Nc2ncc(C(=O)Nc3c(C)cccc3C)s2)n1` [Example 71] cannot be ordered by inhibition at 10 µM: > 90% for the first, > 90% for the second.

`O=C(Cc1cc(Nc2ncnc(Nc3ccccc3)n2)n[nH]1)Nc1cccc(F)c1` [Example 113] and `COCC(C)Nc1ncnc(Nc2cc(CC(=O)Nc3cccc(F)c3)[nH]n2)n1` (centres unmarked) [Example 111] cannot be ordered by inhibition at 10 µM: < 50% for the first, < 50% for the second.

`CCc1nc(NCCCN2CCOCC2)nc(Nc2ncc(C(=O)Nc3c(C)cccc3Cl)s2)n1` [Example 28] and `CCc1nc(Nc2ncc(C(=O)Nc3c(C)cccc3Cl)s2)nc(N2CCOCC2)n1` [Example 25] cannot be ordered by inhibition at 10 µM: > 90% for the first, > 90% for the second.

`Cc1cccc(Cl)c1NC(=O)Cc1cnc(Nc2ncnc(N3CCN(C)CC3)n2)s1` [Example 92] and `Cc1cccc(Cl)c1NC(=O)Cc1cc(Nc2ncnc(N3CCN(C)CC3)n2)n[nH]1` [Example 106] cannot be ordered by inhibition at 10 µM: < 50% for the first, < 50% for the second.

Going from `CCc1nc(Nc2nnc(C(=O)Nc3c(C)cccc3Cl)o2)nc(N2CCN(CCO)CC2)n1` [Example 52] to `CCc1nc(Nc2ncc(C(=O)Nc3c(C)cccc3Cl)o2)nc(N2CCN(CCO)CC2)n1` [Example 40], the inhibition at 10 µM rises from < 50% to > 90%.

First: CCc1nc(NCCN(C)C)nc(Nc2ncc(C(=O)Nc3ccccc3)s2)n1 [Example 79]
Second: CCc1nc(NCCN(C)C)nc(Nc2ncc(C(=O)Nc3c(C)cccc3Cl)s2)n1 [Example 26]
The inhibition at 10 µM of the first is lower: 50 to 90% for the first, > 90% for the second.

`CCc1nc(Nc2ncc(C(=O)Nc3c(C)cccc3Cl)n2C)nc(N2CCN(C)CC2)n1` [Example 59] and `Cc1nc(Nc2ncc(C(=O)Nc3c(C)cccc3Cl)s2)nc(N2CCN(C)CC2)n1` [Example 7] cannot be ordered by inhibition at 10 µM: > 90% for the first, > 90% for the second.

`CCc1nc(NCCN(CC)CC)nc(Nc2ncc(C(=O)Nc3c(C)cccc3Cl)s2)n1` [Example 94] and `Cc1nc(Nc2ncc(C(=O)Nc3c(C)cccc3Cl)s2)nc(N2CCC(CO)CC2)n1` [Example 11] cannot be ordered by inhibition at 10 µM: > 90% for the first, > 90% for the second.

`Cc1cccc(Cl)c1NC(=O)c1cnc(Nc2nc(-c3ccccc3)nc(N3CCN(CCO)CC3)n2)s1` [Example 31] and `Cc1nc(Nc2ncc(C(=O)Nc3c(C)cccc3Cl)s2)nc(N2CCN(CCC#N)CC2)n1` [Example 14] cannot be ordered by inhibition at 10 µM: > 90% for the first, > 90% for the second.

With `Cc1nc(Nc2ncc(C(=O)Nc3c(C)cccc3Cl)o2)nc(N2CCNCC2)n1` [Example 38] the inhibition at 10 µM was > 90%.
